pIC50: −log10 of the molar value.
Legend:
[1] = test system: Ba/F3 cell lines expressing EML4-ALK and EML4-ALK with secondary mutations; experiment: Anti-proliferation assay in EML4-ALK Ba/F3 cell lines; format: cell-based
Protocol: (§1) Ba/F3 cell lines were cultured in RPMI-1640 media containing L-glutamine, supplemented with 10% fetal bovine serum (FBS) and 1% penicillin/streptomycin. Parental Ba/F3 cells were cultured with an additional 1 ng/mL recombinant mouse IL-3 (ProSpec). Mycoplasma testing was performed on a monthly basis and all lines were negative. Cell viability was evaluated using the CellTiter-Glo® Luminescent Cell Viability Assay (Promega) following the manufacturer's standards. 12-point dose titrations were tested in triplicate from 10000 nM to 0.056 nM over 72 hr. Anti-proliferative best fit IC50 values were calculated by Graphpad Prism 7 software.

[2] = test system: tel-TRK fusion Ba/F3 cell lines; experiment: IC50 in TEL-TRK Ba/F3 cells; format: cell-based; details: all 3 tel-TRK fusion Ba/F3 cell lines; FIG. 5
From the text: The IC50 values were generated using ACD/Labs GraphPad Prism (version 7).

[3] = test system: ALK wild type, ALK mutants, TRKA, TRKB, TRKC and ROS1; experiment: AMBIT profile, DiscoverX KINOMEscan Assay platform; format: binding; details: for Ambit profile potency and selectivity: Example 10, FIG. 7A and 7B
From the text: The AMBIT data were generated using DiscoverX KINOMEscan® Assay platform.
The experimental protocol was as in Example 9.

TRK3 = target: T1, TRK3 (Homo sapiens, UniProt Q16288); experiment: Invitrogen Z'-lyte or LanthaScreen kinase IC50 assay; format: biochemical
T1 construct: purchased Invitrogen
From the text: (§2) The IC50 values were generated from Invitrogen™'s Z'-lytet™ or LanthaScreen™ assays.

ROS1 = target: T2, ROS1 (Homo sapiens, UniProt P08922); experiment: as above; format: biochemical
T2 construct: purchased Invitrogen
From the text: as §2

TRK1 = target: T3, TRK1 (Homo sapiens, UniProt P04629); experiment: as above; format: biochemical
T3 construct: purchased Invitrogen
From the text: as §2

ALK L1196M = target: T4, ALK L1196M (Homo sapiens, UniProt Q9UM73, L1196M); experiment: as above; format: biochemical
T4 construct: purchased Invitrogen
From the text: as §2

TRK2 = target: T5, TRK2 (Homo sapiens, UniProt Q16620); experiment: as above; format: biochemical
T5 construct: purchased Invitrogen
From the text: as §2

ALK = target: T6, ALK (Homo sapiens, UniProt Q9UM73); experiment: as above; format: biochemical
T6 construct: similar enzymatic potency was observed against full length ALK and ALK mutants; purchased Invitrogen
From the text: as §2

Parental WT Ba/F3 cells = experiment: Cell viability assay (CellTiter-Glo, 72 hr); format: cell-based; details: for pIC50: Mus musculus, BaF3, 72 hr
Protocol: as §1
The experimental protocol was as in Example 11.

[4] = target: T7, Ba/F3 EML4-ALK C1156Y cells (Homo sapiens, UniProt Q9UM73, C1156Y); experiment: Cell viability assay (CellTiter-Glo, 72 hr); format: cell-based
T7 construct: expressed in transfected cells; host or cells: Ba/F3; the other entry of the earlier key: EML4 (Q9HC35, Echinoderm microtubule-associated protein-like 4)
Protocol: (§3) Parental Ba/F3 cells were cultured with an additional 1 ng/mL recombinant mouse IL-3 (ProSpec). […] Cell viability was evaluated using the CellTiter-Glo® Luminescent Cell Viability Assay (Promega) following the manufacturer's standards. […] Anti-proliferative best fit IC50 values were calculated by Graphpad Prism 7 software.

Ba/F3 EML4-ALK cells = target: T8, Ba/F3 EML4-ALK cells (Homo sapiens, UniProt Q9UM73); experiment: Cell viability assay (CellTiter-Glo, 72 hr); format: cell-based
T8 construct: expressed in transfected cells; host or cells: Ba/F3; the other entry of the earlier key: EML4 (Q9HC35, Echinoderm microtubule-associated protein-like 4)
Protocol: as §3

[5] = target: T9, Ba/F3 EML4-ALK L1196M cells (Homo sapiens, UniProt Q9UM73, L1196M); experiment: Cell viability assay (CellTiter-Glo, 72 hr); format: cell-based
T9 construct: expressed in transfected cells; host or cells: Ba/F3; the other entry of the earlier key: EML4 (Q9HC35, Echinoderm microtubule-associated protein-like 4)
Protocol: as §3

CD74-NTRK1 Ba/F3 cells = target: T10, CD74-NTRK1 Ba/F3 cells (Homo sapiens, UniProt P04629); experiment: Cell viability assay (CellTiter-Glo, 72 hr); format: cell-based; details: for pIC50: 72 hr
T10 construct: expressed in transfected cells; host or cells: Ba/F3; the other entry of the earlier key: CD74 (P04233, HLA class II histocompatibility antigen gamma chain)
Protocol: as §3

[6] = target: T11, Ba/F3 EML4-ALK G1202R cells (Homo sapiens, UniProt Q9UM73, G1202R); experiment: Cell viability assay (CellTiter-Glo, 72 hr); format: cell-based
T11 construct: expressed in transfected cells; host or cells: Ba/F3; the other entry of the earlier key: EML4 (Q9HC35, Echinoderm microtubule-associated protein-like 4)
Protocol: as §3

T3 sequence (P04629 33-796): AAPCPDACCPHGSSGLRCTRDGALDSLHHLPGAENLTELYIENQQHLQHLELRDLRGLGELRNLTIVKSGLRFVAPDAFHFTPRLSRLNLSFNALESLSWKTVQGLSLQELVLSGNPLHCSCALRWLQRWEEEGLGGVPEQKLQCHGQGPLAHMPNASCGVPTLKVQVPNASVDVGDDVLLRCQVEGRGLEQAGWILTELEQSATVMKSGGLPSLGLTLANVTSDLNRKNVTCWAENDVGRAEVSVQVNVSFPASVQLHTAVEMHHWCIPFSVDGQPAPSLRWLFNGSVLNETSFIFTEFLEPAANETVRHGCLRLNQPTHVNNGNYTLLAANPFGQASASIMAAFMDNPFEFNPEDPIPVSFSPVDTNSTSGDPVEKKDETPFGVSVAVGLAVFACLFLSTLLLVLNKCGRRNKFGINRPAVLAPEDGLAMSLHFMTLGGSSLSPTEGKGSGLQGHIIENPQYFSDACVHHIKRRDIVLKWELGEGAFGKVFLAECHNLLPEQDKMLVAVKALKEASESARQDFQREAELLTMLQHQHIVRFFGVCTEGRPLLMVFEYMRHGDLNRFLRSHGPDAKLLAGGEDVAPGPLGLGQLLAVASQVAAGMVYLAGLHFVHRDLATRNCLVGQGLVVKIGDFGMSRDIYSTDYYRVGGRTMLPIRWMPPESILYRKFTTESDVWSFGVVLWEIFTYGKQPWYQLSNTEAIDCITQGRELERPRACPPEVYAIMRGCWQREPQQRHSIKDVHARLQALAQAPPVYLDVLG
T6 sequence (Q9UM73 19-1620): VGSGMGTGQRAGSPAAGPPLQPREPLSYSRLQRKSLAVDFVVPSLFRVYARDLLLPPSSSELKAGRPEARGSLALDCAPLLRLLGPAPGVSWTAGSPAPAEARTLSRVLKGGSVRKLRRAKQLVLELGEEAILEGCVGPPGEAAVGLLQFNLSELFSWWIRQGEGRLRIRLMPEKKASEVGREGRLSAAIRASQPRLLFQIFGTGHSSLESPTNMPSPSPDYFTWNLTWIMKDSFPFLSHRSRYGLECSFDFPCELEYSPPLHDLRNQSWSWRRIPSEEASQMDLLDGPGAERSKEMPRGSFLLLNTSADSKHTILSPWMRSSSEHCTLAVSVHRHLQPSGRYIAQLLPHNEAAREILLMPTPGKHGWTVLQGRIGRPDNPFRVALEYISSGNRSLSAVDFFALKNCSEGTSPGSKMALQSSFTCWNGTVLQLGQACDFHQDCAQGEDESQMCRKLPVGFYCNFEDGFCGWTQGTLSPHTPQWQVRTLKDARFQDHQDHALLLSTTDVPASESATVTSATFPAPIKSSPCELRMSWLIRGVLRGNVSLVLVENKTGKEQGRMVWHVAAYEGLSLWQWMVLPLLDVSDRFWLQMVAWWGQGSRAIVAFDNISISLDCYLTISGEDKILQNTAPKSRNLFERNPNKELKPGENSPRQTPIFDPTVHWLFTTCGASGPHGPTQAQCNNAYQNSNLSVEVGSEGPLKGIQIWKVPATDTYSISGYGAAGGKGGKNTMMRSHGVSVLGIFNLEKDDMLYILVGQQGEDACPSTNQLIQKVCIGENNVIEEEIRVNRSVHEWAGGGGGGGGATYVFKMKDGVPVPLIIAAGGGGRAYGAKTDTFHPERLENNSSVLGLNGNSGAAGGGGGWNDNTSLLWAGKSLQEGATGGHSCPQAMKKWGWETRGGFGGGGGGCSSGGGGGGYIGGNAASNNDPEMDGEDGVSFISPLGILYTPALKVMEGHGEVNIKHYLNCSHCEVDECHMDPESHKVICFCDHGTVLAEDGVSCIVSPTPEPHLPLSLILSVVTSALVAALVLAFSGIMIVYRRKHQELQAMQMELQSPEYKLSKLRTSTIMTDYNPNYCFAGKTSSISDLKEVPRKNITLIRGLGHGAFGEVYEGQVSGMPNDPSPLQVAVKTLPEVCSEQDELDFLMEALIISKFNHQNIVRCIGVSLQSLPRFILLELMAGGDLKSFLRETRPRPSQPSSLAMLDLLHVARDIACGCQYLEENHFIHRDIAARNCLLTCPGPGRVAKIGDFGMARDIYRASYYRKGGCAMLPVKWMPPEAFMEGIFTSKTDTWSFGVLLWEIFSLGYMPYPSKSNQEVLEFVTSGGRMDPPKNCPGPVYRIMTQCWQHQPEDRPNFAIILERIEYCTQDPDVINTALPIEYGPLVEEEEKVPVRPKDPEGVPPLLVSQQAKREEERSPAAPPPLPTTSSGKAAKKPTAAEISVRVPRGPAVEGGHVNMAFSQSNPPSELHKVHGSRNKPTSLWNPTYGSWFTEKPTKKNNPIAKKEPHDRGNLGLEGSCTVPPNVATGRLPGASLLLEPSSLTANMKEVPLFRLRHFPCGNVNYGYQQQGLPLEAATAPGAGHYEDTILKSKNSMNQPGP
T5 sequence (Q16620 32-822): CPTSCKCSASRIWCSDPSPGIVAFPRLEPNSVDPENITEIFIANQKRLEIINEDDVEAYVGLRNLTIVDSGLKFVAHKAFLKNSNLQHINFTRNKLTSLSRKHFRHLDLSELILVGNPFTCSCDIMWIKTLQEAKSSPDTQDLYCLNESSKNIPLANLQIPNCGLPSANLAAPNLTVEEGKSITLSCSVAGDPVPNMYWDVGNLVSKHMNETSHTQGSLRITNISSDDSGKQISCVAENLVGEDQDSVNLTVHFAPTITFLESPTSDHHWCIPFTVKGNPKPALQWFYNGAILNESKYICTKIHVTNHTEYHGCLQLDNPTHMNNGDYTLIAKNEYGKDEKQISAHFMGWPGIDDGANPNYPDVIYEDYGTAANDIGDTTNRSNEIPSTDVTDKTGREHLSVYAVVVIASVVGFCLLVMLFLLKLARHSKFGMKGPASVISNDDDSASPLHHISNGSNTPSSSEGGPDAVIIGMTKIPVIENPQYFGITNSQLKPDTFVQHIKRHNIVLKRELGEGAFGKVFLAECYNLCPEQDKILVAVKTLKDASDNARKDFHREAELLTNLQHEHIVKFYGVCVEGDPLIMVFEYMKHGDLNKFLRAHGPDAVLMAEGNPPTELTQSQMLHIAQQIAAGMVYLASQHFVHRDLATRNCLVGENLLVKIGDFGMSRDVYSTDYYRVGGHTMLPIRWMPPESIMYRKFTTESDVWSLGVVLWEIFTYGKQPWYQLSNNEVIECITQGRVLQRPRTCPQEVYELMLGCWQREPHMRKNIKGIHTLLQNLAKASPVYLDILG
T10 sequence (P04629 510-796 limits assumed): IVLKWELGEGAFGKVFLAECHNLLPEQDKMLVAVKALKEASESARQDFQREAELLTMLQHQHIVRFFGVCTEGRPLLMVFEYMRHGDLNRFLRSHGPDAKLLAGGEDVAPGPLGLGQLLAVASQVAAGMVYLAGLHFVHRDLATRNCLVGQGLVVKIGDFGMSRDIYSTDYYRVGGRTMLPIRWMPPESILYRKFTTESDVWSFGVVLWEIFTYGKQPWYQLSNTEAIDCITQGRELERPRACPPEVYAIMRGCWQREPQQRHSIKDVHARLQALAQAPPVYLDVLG
T1 sequence (Q16288 32-839): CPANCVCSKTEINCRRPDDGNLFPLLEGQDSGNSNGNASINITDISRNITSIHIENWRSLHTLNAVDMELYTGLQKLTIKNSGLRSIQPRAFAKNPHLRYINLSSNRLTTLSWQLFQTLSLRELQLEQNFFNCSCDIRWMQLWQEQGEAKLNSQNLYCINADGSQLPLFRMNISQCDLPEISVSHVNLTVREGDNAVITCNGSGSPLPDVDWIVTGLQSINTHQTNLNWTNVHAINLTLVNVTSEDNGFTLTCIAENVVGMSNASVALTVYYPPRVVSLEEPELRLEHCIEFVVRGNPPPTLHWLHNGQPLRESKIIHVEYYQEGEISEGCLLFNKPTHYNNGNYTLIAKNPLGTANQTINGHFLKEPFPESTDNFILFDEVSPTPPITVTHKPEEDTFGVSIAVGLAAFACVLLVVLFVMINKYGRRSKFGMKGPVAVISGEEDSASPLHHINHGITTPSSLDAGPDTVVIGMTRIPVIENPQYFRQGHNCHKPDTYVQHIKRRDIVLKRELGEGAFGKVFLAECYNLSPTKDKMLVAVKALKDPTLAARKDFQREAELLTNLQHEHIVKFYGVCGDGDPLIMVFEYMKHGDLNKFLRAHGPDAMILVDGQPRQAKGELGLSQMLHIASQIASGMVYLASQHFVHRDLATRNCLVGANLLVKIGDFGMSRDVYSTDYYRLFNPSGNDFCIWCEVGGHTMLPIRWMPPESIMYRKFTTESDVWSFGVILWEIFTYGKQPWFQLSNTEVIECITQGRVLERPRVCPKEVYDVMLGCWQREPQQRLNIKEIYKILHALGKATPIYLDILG
T4 sequence (Q9UM73 19-1620 L1196M): as the sequence (Q9UM73 19-1620) above, with L1178M counted along it
T7 sequence (Q9UM73 1058-1620 C1156Y limits assumed): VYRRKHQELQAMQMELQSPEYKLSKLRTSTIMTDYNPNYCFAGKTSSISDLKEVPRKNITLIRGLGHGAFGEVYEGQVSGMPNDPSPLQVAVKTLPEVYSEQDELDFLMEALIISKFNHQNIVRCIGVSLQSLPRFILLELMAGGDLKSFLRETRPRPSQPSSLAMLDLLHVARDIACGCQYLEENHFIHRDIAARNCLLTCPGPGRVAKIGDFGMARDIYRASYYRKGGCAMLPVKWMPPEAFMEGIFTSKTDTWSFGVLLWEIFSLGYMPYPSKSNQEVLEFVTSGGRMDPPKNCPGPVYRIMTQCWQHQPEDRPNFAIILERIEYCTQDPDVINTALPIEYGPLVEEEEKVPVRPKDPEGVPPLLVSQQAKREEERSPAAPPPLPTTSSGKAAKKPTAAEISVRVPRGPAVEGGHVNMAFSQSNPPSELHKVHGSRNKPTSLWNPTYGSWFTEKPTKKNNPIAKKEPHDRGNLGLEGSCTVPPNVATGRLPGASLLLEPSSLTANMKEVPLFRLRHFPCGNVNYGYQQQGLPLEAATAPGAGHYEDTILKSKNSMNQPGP
T9 sequence (Q9UM73 1058-1620 L1196M limits assumed): as the sequence (Q9UM73 1058-1620 C1156Y limits assumed) above, with Y99C, L139M counted along it
T8 sequence (Q9UM73 1058-1620 limits assumed): as the sequence (Q9UM73 1058-1620 C1156Y limits assumed) above, with Y99C counted along it
T11 sequence (Q9UM73 1058-1620 G1202R limits assumed): as the sequence (Q9UM73 1058-1620 C1156Y limits assumed) above, with Y99C, G145R counted along it

SMILES: CN1Cc2nn(C)cc2-c2cnc(N)c(c2)N2CCC[C@@H]2c2cc(F)ccc2C1=O [Compound I-1a, (R)-26-amino-45-fluoro-11,6-dimethyl-11H-6-aza-2(3,5)-pyridina-1(4,3)-pyrazola-3(1,2)-pyrrolidina-4(1,3)-benzenacycloheptaphan-5-one]
- anti-proliferative activity relative to lorlatinib ([1]; Example 11, FIG. 1): lower activity
- activity relative to lorlatinib and JH-XIII-157-2 ([1]; Example 12, FIG. 2A-2D, Tables 2-5): lower activity
- potency (IC50) relative to entrectinib in tel-TRK fusion Ba/F3 cell lines [2]: more potent than entrectinib
- Ambit profile selectivity (percent activity remaining) ([3]; Example 9, FIG. 6): quite selective toward ALK wild type, ALK mutants as well as TRKA, TRKB, TRKC and ROS1
- Ambit profile potency and selectivity [3]: very potent and selective for ALK, TRKA, TRKB, and TRKC
- pIC50 (TRK3): 9.15
- pIC50 (ROS1): 8.89
- pIC50 (TRK1): 8.52
- pIC50 (ALK L1196M): 8.22
- pIC50 (TRK2): 9.30
- pIC50 (ALK): 7.92
- pIC50 (Parental WT Ba/F3 cells): 4.72
- non-specific activity in parental Ba/F3 cells, compared in words (Parental WT Ba/F3 cells): less non-specific activity than entrectinib
- pIC50 [4]: 6.82
- pIC50 (Ba/F3 EML4-ALK cells): 7.63
- pIC50 [5]: 6.84
- pIC50 (CD74-NTRK1 Ba/F3 cells): 9.88
- activity relative to entrectinib in CD74-NTRK1 expressing Ba/F3 cells (CD74-NTRK1 Ba/F3 cells; in words): entrectinib like activity
- pIC50 [6]: 5.91

SMILES: Cc1c2c(nn1C)CN(C)C(=O)c1ccc(F)cc1[C@H]1CCCN1c1cc-2cnc1N [Compound I-1c, (R)-2^6-amino-4^5-fluoro-1^1,1^5,6-trimethyl-1^1H-6-aza-2(3,5)-pyridina-1(4,3)-pyrazola-3(1,2)-pyrrolidina-4(1,3)-benzenacycloheptaphan-5-one]
- Ambit profile potency and selectivity [3]: very potent and selective for ALK, TRKA, TRKB, and TRKC
- pIC50 (TRK3): 9.30
- pIC50 (ROS1): 9.22
- pIC50 (TRK1): 9.00
- pIC50 (ALK L1196M): 8.52
- pIC50 (TRK2): > 9.30
- pIC50 (ALK): 8.30

SMILES: CN1CCN(c2ccc(C(=O)Nc3n[nH]c4ccc(Cc5cc(F)cc(F)c5)cc34)c(NC3CCOCC3)c2)CC1 [Entrectinib]
- pIC50 (Parental WT Ba/F3 cells): 5.69
- non-specific activity in parental Ba/F3 cells, compared in words (Parental WT Ba/F3 cells): more active than compound I-1a

SMILES: C[C@H]1Oc2cc(cnc2N)-c2c(nn(C)c2C#N)CN(C)C(=O)c2ccc(F)cc21 [Lorlatinib, reference compound]
- pIC50 (Parental WT Ba/F3 cells): 4.72
- pIC50 (CD74-NTRK1 Ba/F3 cells): 7.17

SMILES: CN1Cc2nn(C)c(C#N)c2-c2cnc(N)c(c2)N2CCC[C@@H]2c2cc(F)ccc2C1=O [Compound I-1d, (R)-2^6-amino-4^5-fluoro-1,6-dimethyl-5-oxo-1^1H-6-aza-2(3,5)-pyridina-1(4,3)-pyrazola-3(1,2)-pyrrolidina-4(1,3)-benzenacycloheptaphane-15-carbonitrile]
- Ambit profile potency and selectivity [3]: very potent and selective for ALK, TRKA, TRKB, and TRKC
- pIC50 (TRK3): 8.70
- pIC50 (ROS1): 9.00
- pIC50 (TRK1): 8.22
- pIC50 (ALK L1196M): 8.52
- pIC50 (TRK2): 8.30
- pIC50 (ALK): 8.15

SMILES: COc1c2c(nn1C)CN(C)C(=O)c1ccc(F)cc1[C@H]1CCCN1c1cc-2cnc1N [Compound I-1b, (R)-26-amino-45-fluoro-15-methoxy-11,6-dimethyl-11H-6-aza-2(3,5)-pyridina-1(4,3)-pyrazola-3(1,2)-pyrrolidina-4(1,3)-benzenacycloheptaphan-5-one]
- Ambit profile potency and selectivity [3]: very potent and selective for ALK, TRKA, TRKB, and TRKC
- pIC50 (TRK3): 9.15
- pIC50 (ROS1): 9.05
- pIC50 (TRK1): 8.40
- pIC50 (ALK L1196M): 7.70
- pIC50 (TRK2): 9.05
- pIC50 (ALK): 8.05

SMILES: Cn1cc2c(n1)CN(C1CC1)C(=O)c1ccc(F)cc1[C@H]1CCCN1c1cc-2cnc1N [Compound I-1e, (R)-2^6-amino-6-cyclopropyl-4^5-fluoro-1^1-methyl-1^1H-6-aza-2(3,5)-pyridina-1(4,3)-pyrazola-3(1,2)-pyrrolidina-4(1,3)-benzenacycloheptaphan-5-one]
- pIC50 (TRK3): 9.15
- pIC50 (ROS1): 9.15
- pIC50 (TRK1): 8.70
- pIC50 (ALK L1196M): 8.22
- pIC50 (TRK2): 9.15
- pIC50 (ALK): 8.22

— patent US12157738B2, “Macrocyclic inhibitors of ALK, TRKA, TRKB, and ROS1” (DANA-FARBER CANCER INSTITUTE, INC., priority 2018, dated 2024)
